This is an account of results in patent US8410141B2, “Insecticidal arylpyrrolines” (Bayer Cropscience AG, priority 2009, dated 2013).

In general, mortality refers to the share of the test organisms that died.

Format in all cases: in vivo
For data set [1], the system named is Tobacco Cutworm (Spodoptera litura) Larvae. The data set can be described thus: Test against tobacco cutworm (Spodoptera litura) larvae, leaf immersion. The note with it: 100 ppm; sweet potato leaves immersed; third-instar larvae; after 7 days. On the procedure:
(§1) Unless not mentioned otherwise, the test solutions were prepared as follows:
(§2) Containing as solvent: Dimethylformamide, 3 parts by weight; and as emulsifier: Polyoxyethylene alkyl phenyl ether, 1 part by weight. To prepare the test solution, 1 part by weight of an active compound is mixed with the above-mentioned amount of solvent containing the above-mentioned amount of emulsifier, and the mixture is diluted with water to the desired concentration.
The leaves of sweet potato were immersed in the test solution at the appropriate concentration, and the leaves were dried in air. The leaves were then placed in a petri dish having a diameter of 9 cm, and ten third-instar larvae of tobacco cutworm were released therein. The petri dish was placed in a temperature-controlled chamber at 25° C. After 2 days and 4 days sweet potato leaves were additionally added. After 7 days, the number of dead larvae was counted to calculate the insecticidal activity. An insecticidal activity of 100% means that all larvae were killed, whereas an insecticidal activity of 0% means that no larva was killed. In the current test, the results of two petri dishes for each partition were averaged.

Data set [2] has as its system Two-Spotted Spider Mite (Tetranychus urticae). The data set can be described thus: Test against two-spotted spider mite (Tetranychus urticae), spray. The note with it: 100 ppm; sprayed on kidney bean; adult mites; after 7 days. On the procedure:
as §1, §2
50 to 100 adult two-spotted spider mites were inoculated onto the leaves of kidney beans at the two-true leaf stage, which plant had been cultivated in a pot having a diameter of 6 cm. After one day, test solution at the appropriate concentration was sprayed thereon in a sufficient amount using a spray gun. After the spraying, the plant pot was placed inside a greenhouse, and after 7 days, the acaricidal activity was calculated. An acaricidal activity of 100% means that all mites were killed, whereas an acaricidal activity of 0% means that no mite was killed.

Data set [3] relates to Tobacco Cutworm (Spodoptera litura) Larvae. The data set can be described thus: Test against tobacco cutworm larvae, root systemicity. The following applies: 100 ppm; broccoli seedling roots dipped 3 days; second-instar larvae; after 4 days. On the procedure: as §1, §2
The roots of seedling of broccoli at 1.2 leaf stage were dipped into the test solution at the appropriate concentration. After 3 days, the leaves were cut and placed in a petri dish having a diameter of 9 cm. And then five second-instar larvae of tobacco cutworm were released therein. The petri dish was placed in a temperature-controlled room at 25° C. After 4 days, the number of dead larvae was counted, to calculate the insecticidal activity. An insecticidal activity of 100% means that all larvae were killed, whereas an insecticidal activity of 0% means that no larva was killed.

Data set [4] deals with Cucurbit Leaf Beetle (Aulacophora femoralis). The experiment in a line: Test against cucurbit leaf beetle (Aulacophora femoralis), leaf immersion. The note with it: 100 ppm; cucumber leaves immersed; second-instar larvae; after 7 days. On the procedure: as §1, §2
Cucumber leaves were immersed in the test solution at the appropriate concentration, and the leaves were dried in air. The leaves were then placed in a plastic cup containing sterilized black soil, and five second-instar larvae of cucurbit leaf beetle were released therein. The plastic cup was placed in a temperature-controlled chamber at 25° C. After 7 days, the number of dead larvae was counted, and thus the insecticidal activity was calculated. An insecticidal activity of 100% means that all beetles were killed, whereas an insecticidal activity of 0% means that no beetle was killed.

The test system of data set [5] is Rice Leafroller (Cnaphalocrocis medinalis) Larvae. The data set can be described thus: Test against rice leafroller larvae, seed treatment. The note with it: 8 g/1 kg dry seeds, leaves cut 28 days after seeding, third-instar larvae, after 7 days. On the procedure: To prepare the test solution, 1 part by weight of an active compound is mixed with the 8 parts of acetone, and mix with 20 mg of micronized mineral. After that 1 g of dry rice seeds and 50 ul of water are added and mixed well and dried in the air. Sow treated seeds in the pot having a diameter of 12 cm. 28 days after seeding the leaves were cut and placed in a petri dish having a diameter of 9 cm. And then five third-instar larvae of rice leafroller were released therein. The petri dish was placed in a temperature-controlled room at 25° C. After 7 days, the number of dead larvae was counted to calculate the insecticidal activity. An insecticidal activity of 100% means that all larvae were killed, whereas an insecticidal activity of 0% means that no larva was killed. […] The comparative compound B is No. 1-79 in WO2009/097992.

The test system of data set [6] is Tobacco Cutworm (Spodoptera litura) Larvae. The experiment in a line: Test against tobacco cutworm larvae, systemic test by soil drench. The note with it: 250 ppm, 20 ml soil drench on potted broccoli, leaves cut after 7 days, third-instar larvae. On the procedure: as §1, §2
20 ml of the test solution at the appropriate concentration was treated on the soil surface of potted broccoli seedling at 2 to 3 leaf stage. After 7 days, the leaves were cut and placed in a petri dish having a diameter of 9 cm. And then ten third-instar larvae of tobacco cutworm were released therein. The petri dish was placed in a temperature-controlled room at 25° C. After 7 days, the number of dead larvae was counted to calculate the insecticidal activity. An insecticidal activity of 100% means that all larvae were killed, whereas an insecticidal activity of 0% means that no larva was killed. […] The comparative compound A is No. 1-72 in WO2009/097992.

In a further data set the test system is Ctenocephalides felis. The data set can be described thus: Ctenocephalides felis test (CTECFE). The following applies: Ctenocephalides felis, 48 h. On the procedure:
(§3) Solvent: dimethyl sulfoxide
To produce a suitable preparation of active compound, 10 mg of active compound are dissolved in 0.5 ml solvent, and the concentrate is diluted with cattle blood to the desired concentration. Approximately 20 adult unfed (Ctenocepahlides felis) are placed in flea chambers. The blood chamber, sealed with parafilm on the bottom, are filled with cattle blood supplied with compound solution and placed on top of the flea chamber, so that the fleas are able to suck the blood. The blood chamber is heated to 37° C. whereas the flea chamber is kept at room temperature. After 2 days mortality in % is determined. 100% means that all the fleas have been killed; 0% means that none of the fleas have been killed.

Data set [7] has as its system adult engorged female Boophilus microplus ticks. The experiment in a line: Boophilus microplus (dip). The following applies: Rhipicephalus microplus, 168 h. On the procedure: Solvent: Dimethylsulfoxid
To produce a suitable preparation of active compound, 10 mg of active compound are dissolved in 0.5 ml solvent, and the concentrate is diluted with water to the desired concentration. Eight to ten adult engorged female Boophilus microplus ticks are placed in perforated plastic beakers and immersed in aqueous compound solution for one minute. Ticks are transferred to a filter paper in a plastic tray. Egg deposition of fertile eggs is monitored after. After 7 days mortality in % is determined. 100% means that all the ticks have been killed; 0% means that none of the ticks have been killed.

For another data set, the system named is Musca domestica. The data set can be described thus: Musca domestica test. On the procedure: as §3
To produce a suitable preparation of active compound, 10 mg of active compound are dissolved in 0.5 ml solvent, and the concentrate is diluted with water to the desired concentration. Prior to the assay, a piece of kitchen sponge is soaked with a mixture of sugar and compound solution and placed into a container. 10 adults (Musca domestica) are placed into the container and closed with a perforated lid. After 2 days mortality in % is determined. 100% means that all the flies have been killed; 0% means that none of the flies have been killed.

Data set [8] deals with Lucilia cuprina 1st instar larvae. The data set can be described thus: Lucilia cuprina (48 h). On the procedure:
Species: Lucilia cuprina 1st instar larvae (age 24 hrs)
as §3
10 mg active compound are dissolved in 0.5 ml dimethyl sulfoxide. Serial dilutions are made to obtain the desired rates. Approximately 20 Lucilia cuprina 1st instar larvae are transferred into a test tube containing 1 cm^3 of minced horse meat and 0.5 ml aqueous dilution of test compound. After 48 hrs percentage of larval mortality are recorded. 100% efficacy=all larvae are killed, […].

The subject of data set [9] is mustard beetle larvae (Phaedon cochleariae). The experiment in a line: Phaedon cochleariae test, PHAECO spray application. The note with it: 100 g/ha; Chinese cabbage leaf-disks sprayed; after 7 days. On the procedure: Solvent: 78.0 parts by weight of acetone
• 1.5 parts by weight of dimethylformamide Emulsifier: 0.5 parts by weight of alkylaryl polyglycolether
To produce a suitable preparation of active compound, 1 part by weight of active compound is mixed with the stated amount of solvent and emulsifier, and the concentrate is diluted with emulsifier-containing water to the desired concentration.
Chinese cabbage (Brassica pekinesis) leaf-disks are sprayed with a preparation of the active ingredient of the desired concentration. Once dry, the leaf disks are infested with mustard beetle larvae (Phaedon cochleariae).
After 7 days mortality in % is determined. 100% means that all beetle larvae have been killed and 0% means that none of the beetle larvae have been killed.

Data set [10] relates to fall armyworm larvae (Spodoptera frugiperda). The experiment in a line: Spodoptera frugiperda test, SPODFR spray application. The note with it: 100 g/ha; maize leaf sections sprayed; after 7 days. From the text:
(§4) Solvent: 78.0 parts by weight acetone
(§5) • 1.5 parts by weight dimethylformamide Emulsifier: 0.5 parts by weight alkylarylpolyglycolether
To produce a suitable preparation of the active compound, 1 part by weight of active compound is mixed with the stated amount of solvent and emulsifier, and the concentrate is dilutes with emulsifier-containing water to the desired concentration. Maize (Zea mais) leaf sections are sprayed with a preparation of the active ingredient of the desired concentration. Once dry, the leaf sections are infested with fall armyworm larvae (Spodoptera frugiperda).
After 7 days mortality in % is determined. 100% means that all caterpillars have been killed and 0% means that none of the caterpillars have been killed.

Data set [11] has as its system green peach aphid (Myzus persicae). The experiment in a line: Myzus test, oral (MYZUPE O). The following applies: 100 g/ha; aphids suck on preparation; after 5 days. On the procedure: Solvent: 80 parts by weight acetone
To produce a suitable preparation of active compound, 1 part by weight of active compound ist mixed with the stated amount of solvent and emulsifier, and the concentrate is diluted with emulsifier-containing water to the desired concentration. Containers are infested with a mixed population of the green peach aphid (Myzus persicae), the aphids suck on a preparation of the active compound at the desired concentration.
After 5 days mortality in % is determined. 100% means that all aphids have been killed; 0% means that none of the aphids have been killed.

Data set [12] deals with two spotted spidermite (Tetranychus urticae), OP-resistant. The experiment in a line: Tetranychus urticae test, OP-resistant (TETRUR spray application). The following applies: 100 g/ha; French beans sprayed; all stages; after 6 days. On the procedure:
as §4, §5
To produce a suitable preparation of active compound, 1 part by weight of active compound is mixed with the stated amount of solvent and emulsifier, and the concentrate is diluted with emulsifier-containing water to the desired concentration. French beans (Phaseolus vulgaris) which are heavily infested with all stages of the two spotted spidermite (Tetranychus urticae), are sprayed with a preparation of the active ingredient at the desired concentration.
After 6 days mortality in % is determined. 100% means that all spider mites have been killed and 0% means that none of the spider mites have been killed.

`N#Cc1cc(C2=NCC(c3cc(C(F)(F)F)nc(C(F)(F)F)c3)(C(F)(F)F)C2)ccc1-n1cncn1` (stereo not shown) [1-22]: the insecticidal activity in data set [1], in data set [3], in data set [4], in [5] and in data set [6] was 100% each time. Also, the acaricidal activity rate in data set [2] is reported as 100%.
Turning to `N#Cc1cc(C2=NCC(c3cc(Cl)nc(Cl)c3)(C(F)(F)F)C2)ccc1-n1cncn1` (stereo not shown) [1-1, 5-[3-(2,6-dichloropyridin-4-yl)-3-(trifluoromethyl)-3,4-dihydro-2H-pyrrol-5-yl]-2-(1H-1,2,4-triazol-1-yl)benzonitrile], the mortality at 100 ppm came to 100% in the data set with Ctenocephalides felis; 100% in data set [7]; 100% in the data set with Musca domestica (Musca domestica, 48 h); 100% in data set [8] (Lucilia cuprina, 48 h, read-out: larval mortality). Besides, the insecticidal activity in data set [1], in [3], in data set [4], in data set [5] and in data set [6] was 100% each time. Besides, in data set [2], the acaricidal activity rate turned out to be 100%.
Regarding `N#Cc1cc(C2=NCC(c3cc(Cl)c4c(c3)OC(F)(F)O4)(C(F)(F)F)C2)ccc1-n1cncn1` (stereo not shown) [1-25], the insecticidal activity in data set [1], in data set [3] and in data set [4] was 100% throughout. In the data set with Musca domestica (100 ppm, sponge with sugar and compound solution, adults, after 2 days), this compound returned a mortality of 90%. For the same compound, the larval mortality in data set [8] (100 ppm, minced horse meat, after 48 hrs) was found to be 90%.
With `CN(C)c1c(Cl)cc(C2(C(F)(F)F)CN=C(c3ccc(-n4cncn4)c(C#N)c3)C2)cc1Cl` (stereo not shown) [1-3], the mortality is 100% in data set [9], 83% in [10], 100% in data set [11] and 100% in [12].
